In brackets after ≈: the same amount, converted by molar mass. Several values for one entry are separate records, joined by “and”; a condition that tells them apart may be missing. Identical values can stand only once.
Experiments:
Type in all cases: cell-based
Haemophilus influenzae = assay: Susceptibility (MIC/MBC) of H. influenzae clinical isolates; details: for MIC / MIC90: Haemophilus influenzae; for MIC90 / MIC Range: H. influenzae isolates of Table 6
Proteus mirabilis = assay: MIC/MBC of nanoemulsions against gram-negative isolates (CLSI, alamar blue); details: Proteus mirabilis (n = 5); for MIC50 / MIC Range: nanoemulsions in the presence of 5 mM EDTA
[1] = tested on: Stenotrophomonas maltophilia; assay: as above; details: for MIC50: Stenotrophomonas maltophilia (n = 5), nanoemulsions in the presence of 5 mM EDTA
Pseudomonas aeruginosa = assay: as above; details: Pseudomonas aeruginosa (n = 5); for MIC50 / MIC Range: nanoemulsions in the presence of 5 mM EDTA
Burkholderia cepacia = assay: as above; details: Burkholderia cepacia (n = 5), nanoemulsions in the presence of 5 mM EDTA; for MIC Range: in µg/mL
Escherichia coli = assay: as above; details: Escherichia coli (n = 5)
Klebsiella pneumoniae = assay: as above; details: Klebsiella pneumoniae (n = 5); for MIC50 / MIC Range: nanoemulsions in the presence of 5 mM EDTA; for MIC Range: in µg/mL
Acinetobacter baumannii = assay: as above; details: for % resistant / % susceptible / MIC50: Acinetobacter baumannii (n = 5); for MIC50: nanoemulsions in the presence of 5 mM EDTA
[2] = tested on: methicillin-resistant Staphylococcus aureus (MRSA); assay: Susceptibility (MIC/MBC) of MRSA clinical isolates; details: for MIC90: Staphylococcus aureus, MRSA isolates, read-out: MIC90; for MBC50(15) / MIC50(15) / MBC90(26) / MIC90(26): 29 MRSA clinical isolates; for MBC50(15) / MIC50(15): rank 15; for MBC90(26) / MIC90(26): rank 26; for MBC / MIC: individual MRSA clinical isolates, values listed by rank order 1-29
[3] = strain 30, nanoemulsion values as μg CPC/ml or μg BA/ml
[4] = strain 32, nanoemulsion values as μg CPC/ml or μg BA/ml
[5] = strain 33, nanoemulsion values as μg CPC/ml or μg BA/ml
[6] = strain 34, nanoemulsion values as μg CPC/ml or μg BA/ml
[7] = strain 35, nanoemulsion values as μg CPC/ml or μg BA/ml
[8] = strain 36, nanoemulsion values as μg CPC/ml or μg BA/ml
[9] = strain 37, nanoemulsion values as μg CPC/ml or μg BA/ml
[10] = strain 38, nanoemulsion values as μg CPC/ml or μg BA/ml
[11] = strain 41, nanoemulsion values as μg CPC/ml or μg BA/ml
[12] = strain 42, nanoemulsion values as μg CPC/ml or μg BA/ml
[13] = strain 49247, nanoemulsion values as μg CPC/ml (P4075EC, W205EC) or μg BA/ml (W205GBA2)
[14] = nanoemulsion values as μg CPC/ml or μg BA/ml
[15] = nanoemulsions in the presence of 5 mM EDTA

Compound: CC1(C)S[C@@H]2[C@H](NC(=O)[C@H](N)c3ccccc3)C(=O)N2[C@H]1C(=O)O [ampicillin]
- MIC (Haemophilus influenzae; [3]): 0.25 µg/mL (≈ 0.715 µM)
- MIC (Haemophilus influenzae; [4]): 32 µg/mL (≈ 91.6 µM)
- MIC (Haemophilus influenzae; [5]): 0.25 µg/mL (≈ 0.715 µM)
- MIC (Haemophilus influenzae; [6]): > 32 µg/mL
- MIC (Haemophilus influenzae; [7]): 0.25 µg/mL (≈ 0.715 µM)
- MIC (Haemophilus influenzae; [8]): 0.125 µg/mL (≈ 0.358 µM)
- MIC (Haemophilus influenzae; [9]): > 32 µg/mL
- MIC (Haemophilus influenzae; [10]): 0.25 µg/mL (≈ 0.715 µM)
- MIC (Haemophilus influenzae; [11]): > 32 µg/mL
- MIC (Haemophilus influenzae; [12]): > 32 µg/mL
- MIC (Haemophilus influenzae; [13]): 4 µg/mL (≈ 11.4 µM)
- MIC90 (Haemophilus influenzae; [14]): > 32 µg/mL

Compound: CC[C@H]1OC(=O)[C@H](C)[C@@H](O[C@H]2C[C@@](C)(OC)[C@@H](O)[C@H](C)O2)[C@H](C)[C@@H](O[C@@H]2O[C@H](C)C[C@H](N(C)C)[C@H]2O)[C@](C)(O)C[C@@H](C)CN(C)[C@H](C)[C@@H](O)[C@]1(C)O [azithromycin]
- susceptibility of the majority of isolates by MIC90 values (Haemophilus influenzae; H. influenzae): susceptible
- MIC Range (Haemophilus influenzae; [14]): 1 to 8 µg/mL
- MIC (Haemophilus influenzae; [3]): 2 µg/mL (≈ 2.67 µM)
- MIC (Haemophilus influenzae; [4]): 8 µg/mL (≈ 10.7 µM)
- MIC (Haemophilus influenzae; [5]): 1 µg/mL (≈ 1.34 µM)
- MIC (Haemophilus influenzae; [6]): 1 µg/mL (≈ 1.34 µM)
- MIC (Haemophilus influenzae; [7]): 1 µg/mL (≈ 1.34 µM)
- MIC (Haemophilus influenzae; [8]): 2 µg/mL (≈ 2.67 µM)
- MIC (Haemophilus influenzae; [9]): 1 µg/mL (≈ 1.34 µM)
- MIC (Haemophilus influenzae; [10]): 1 µg/mL (≈ 1.34 µM)
- MIC (Haemophilus influenzae; [11]): 2 µg/mL (≈ 2.67 µM)
- MIC (Haemophilus influenzae; [12]): 1 µg/mL (≈ 1.34 µM)
- MIC (Haemophilus influenzae; [13]): 1 µg/mL (≈ 1.34 µM)
- MIC90 (Haemophilus influenzae; [14]): 2 µg/mL (≈ 2.67 µM)

Compound: Piperacillin/tazobactam
- % resistant (Proteus mirabilis): 0.0%
- % susceptible (Proteus mirabilis): 100.0%
- MIC50 (Proteus mirabilis): ≤ 0.5 µg/mL
- MIC Range (Proteus mirabilis): <=0.5-1 ^
- MIC50 [1]: > 64 µg/mL
- % resistant (Pseudomonas aeruginosa): 0.0%
- % susceptible (Pseudomonas aeruginosa): 100.0%
- MIC50 (Pseudomonas aeruginosa): 2 µg/mL
- MIC Range (Pseudomonas aeruginosa; in µg/mL): 2-16
- MIC50 (Burkholderia cepacia): 4 µg/mL
- MIC Range (Burkholderia cepacia): 2-32
- % resistant (Escherichia coli): 0.0%
- % susceptible (Escherichia coli): 100.0%
- MIC50 (Escherichia coli; [15]): 2 µg/mL
- MIC Range (Escherichia coli; nanoemulsions in the presence of 5 mM EDTA, in µg/mL): 1-8
- % resistant (Klebsiella pneumoniae): 0.0%
- % susceptible (Klebsiella pneumoniae): 80.0%
- MIC50 (Klebsiella pneumoniae): 2 µg/mL
- MIC Range (Klebsiella pneumoniae): 1-64
- % resistant (Acinetobacter baumannii): 20.0%
- % susceptible (Acinetobacter baumannii): 80.0%
- MIC50 (Acinetobacter baumannii): 2 µg/mL

Compound: Gentamicin
- % resistant (Proteus mirabilis): 0.0%
- % susceptible (Proteus mirabilis): 100.0%
- MIC50 (Proteus mirabilis): ≤ 2 µg/mL
- MIC Range (Proteus mirabilis; in µg/mL): <=2
- MIC50 [1]: > 8 µg/mL
- % resistant (Pseudomonas aeruginosa): 0.0%
- % susceptible (Pseudomonas aeruginosa): 100.0%
- MIC50 (Pseudomonas aeruginosa): ≤ 2 µg/mL
- MIC Range (Pseudomonas aeruginosa): <=2-4 ^
- MIC50 (Burkholderia cepacia): > 8 µg/mL
- MIC Range (Burkholderia cepacia): >8
- % resistant (Escherichia coli): 20.0%
- % susceptible (Escherichia coli): 80.0%
- MIC50 (Escherichia coli; [15]): ≤ 2 µg/mL
- % resistant (Klebsiella pneumoniae): 0.0%
- % susceptible (Klebsiella pneumoniae): 100.0%
- MIC50 (Klebsiella pneumoniae): ≤ 2 µg/mL
- MIC Range (Klebsiella pneumoniae): <=2
- % resistant (Acinetobacter baumannii): 20.0%
- % susceptible (Acinetobacter baumannii): 80.0%
- MIC50 (Acinetobacter baumannii): ≤ 2 µg/mL

Compound: CCC[C@@H]1C[C@@H](C(=O)N[C@@H]([C@H]2O[C@H](SC)[C@H](O)[C@@H](O)[C@H]2O)[C@H](C)Cl)N(C)C1 [clindamycin]
- MIC90 [2]: > 64 µg/mL
- MIC Range (Haemophilus influenzae; [14]): 4 to 16 µg/mL
- MIC (Haemophilus influenzae; [3]): 16 µg/mL (≈ 37.6 µM)
- MIC (Haemophilus influenzae; [4]): 8 µg/mL (≈ 18.8 µM)
- MIC (Haemophilus influenzae; [5]): 16 µg/mL (≈ 37.6 µM)
- MIC (Haemophilus influenzae; [6]): 16 µg/mL (≈ 37.6 µM)
- MIC (Haemophilus influenzae; [7]): 8 µg/mL (≈ 18.8 µM)
- MIC (Haemophilus influenzae; [8]): 16 µg/mL (≈ 37.6 µM)
- MIC (Haemophilus influenzae; [9]): 4 µg/mL (≈ 9.41 µM)
- MIC (Haemophilus influenzae; [10]): 16 µg/mL (≈ 37.6 µM)
- MIC (Haemophilus influenzae; [11]): 8 µg/mL (≈ 18.8 µM)
- MIC (Haemophilus influenzae; [12]): 4 µg/mL (≈ 9.41 µM)
- MIC (Haemophilus influenzae; [13]): 8 µg/mL (≈ 18.8 µM)
- MIC90 (Haemophilus influenzae; [14]): 16 µg/mL (≈ 37.6 µM)

Compound: O=C(O)CN(CCN(CC(=O)O)CC(=O)O)CC(=O)O [EDTA, ethylenediaminetetraacetic acid]
- strains inhibited by EDTA alone ([1]; 5 isolates, 5 mM EDTA): 5 strains
- strains inhibited by EDTA alone (Acinetobacter baumannii; 5 isolates, 5 mM EDTA): 3 strains

Compound: C/C(=C\C(=O)OCCCCCCCCC(=O)O)C[C@@H]1OC[C@H](C[C@@H]2O[C@H]2[C@@H](C)[C@H](C)O)[C@@H](O)[C@H]1O [Mup]
- MBC50(15) [2]: >2 µg/mL
- MIC50(15) [2]: 0.25 µg/mL (≈ 0.499 µM)
- MBC90(26) [2]: >64 µg/mL
- MIC90(26) [2]: >64 µg/mL
- MBC [2]: >64 μg/ml (9×) and >8 μg/ml and >4 μg/ml (5×) and >2 μg/ml (11×) and 1 μg/ml (3×)
- MIC [2]: >64 μg/ml (8×) and 16 μg/ml and 0.25 μg/ml (9×) and 0.125 μg/ml (11×)

Compound: C[C@H]1c2cccc(O)c2C(=O)C2=C(O)[C@]3(O)C(=O)C(C(N)=O)=C(O)[C@@H](N(C)C)[C@@H]3[C@@H](O)[C@@H]21 [doxycycline]
- MIC90 [2]: 4 µg/mL (≈ 9 µM)

Compound: CC(=O)O.NCc1ccc(S(N)(=O)=O)cc1 [Maf. Acet.]
- MBC50(15) [2]: >128 µg/mL
- MBC90(26) [2]: >128 µg/mL
- MBC [2]: >128 µg/mL

Compound: CC(=O)O.NCc1ccc(S(N)(=O)=O)cc1 [Maf. Acet]
- MIC50(15) [2]: >128 µg/mL
- MIC90(26) [2]: >128 µg/mL
- MIC [2]: >128 μg/ml (28×) and 128 μg/ml

Compound: Cc1onc(-c2ccccc2)c1C(=O)N[C@@H]1C(=O)N2[C@@H]1SC(C)(C)[C@@H]2C(=O)O [Ox]
- MBC50(15) [2]: >16 µg/mL
- MIC50(15) [2]: >16 µg/mL
- MBC90(26) [2]: >16 µg/mL
- MIC90(26) [2]: >16 µg/mL
- MBC [2]: >16 μg/ml (28×) and 1 μg/ml
- MIC [2]: >16 μg/ml (26×) and 16 μg/ml (2×) and 0.5 μg/ml
